Test results as given in patent US9896423B2, “Deuterium substituted 1-[2-(2,4-dimethyl-phenylsulfanyl)-phenyl]piperazine compound or derivatives thereof, and pharmaceutical composition and use thereof” (Jiangsu Jibeier Pharmaceutical Co. Ltd., priority 2014, dated 2018).
Values joined by “and” are separate entries in the source; they are usually repeats but may differ in a detail not shown here. Identical values can stand only once. Counter-ions that a name gives are not always drawn. Like-named read-outs stand apart in the source and are kept apart here.

Experiment: Pharmacokinetic test in rats, gavage administration
Type: in vivo, SD rats
Method: The preferred compound of the present disclosure was assessed in rats for its pharmacokinetic profile.
SD rats, male and female, weighing 150 to 250 g
Mobile phase: 10 mM ammonium formate aqueous solution:methanol=15:85
The ionization source was electrospray ionization source. The detection mode was positive mode. Multiple reaction monitoring (MRM) was used as the scanning mode. The ion reaction for the quantitative analysis was the following: m/z was 305.2\150.0 for XX, and 256.1\167.1 for diphenhydramine (the internal standard).
XX or YY was orally administered with single dose of 20 mg/kg to six SD rats, one half of which were male and the other half was female. XX or YY was dissolved in 10% hydroxypropyl-β-cyclodextrin. […]
After the blood collection, the tubes were immediately gently turned upside down at least five times to ensure sufficient mixing, and placed on ice. Heparin was added for anticoagulation. The samples were centrifuged at 8000 rpm for 5 min to separate serum from erythrocyte. The serum was transferred with a pipettor to 2 mL polypropylene (PP) tubes, which were marked with the name of the compound and the time points, and stored in a refrigerator at −40° C. before LC-MS analysis. Samples with high concentrations were diluted with rat blank plasma.
2.5 μL of Meth-H2O and 5 μL of the internal standard solution (20 ng/mL, IS) were added to 50 μL of the plasma. Subsequently, 150 μL of methanol was added to the mixture to precipitate protein and the samples were then centrifuged at 13000 rpm for 5 min. The upper organic phase was taken out, filtrated with a 0.22 μM microporous membrane, and 2 μL of the sample was injected for the LC-MS analysis.

[1] = both sexes, Sprague-Dawley, rat, plasma, oral, 20 mg/kg, 20 mg/kg oral, individual rats 1-6, read-out: Concentrations in Plasma of Rats after Oral Administration
[2] = both sexes, Sprague-Dawley, rat, plasma, oral, 20 mg/kg, 20 mg/kg oral, mean of 6 rats, read-out: Concentrations in Plasma of Rats after Oral Administration, Mean ± SD
[3] = rats, oral 20 mg/kg, individual rats 1-6, 20 mg/kg

[2H]C([2H])([2H])c1ccc(Sc2ccccc2N2CCNCC2)c(C([2H])([2H])[2H])c1 [XX, 1-{2-[2,4-bis(trideuteriomethyl)phenylsulfanyl]phenyl}piperazine hydrobromic acid salt]
concentration at 1 h (both sexes, Sprague-Dawley, rat, plasma, oral, 20 mg/kg, 20 mg/kg oral, 1 h, mean of 6 rats, read-out: Concentrations in Plasma of Rats after Oral Administration, Mean ± SD): 95.8 ± 32.9 ng/mL
concentration at 1.5 h [1]: 73.4 ng/mL
concentration at 1.5 h [2]: 103 ± 26.9 ng/mL
concentration at 2 h [1]: 78.6 ng/mL
concentration at 2 h [2]: 98.2 ± 19.5 ng/mL
concentration at 3 h [1]: 58 ng/mL
concentration at 3 h [2]: 68.7 ± 12 ng/mL
concentration at 4 h [1]: 63.4 ng/mL
concentration at 4 h [2]: 65.1 ± 10.4 ng/mL
concentration at 6 h [1]: 46.1 ng/mL
concentration at 6 h [2]: 44.1 ± 7.27 ng/mL
concentration at 8 h [1]: 22.1 ng/mL
concentration at 8 h [2]: 23.5 ± 4.49 ng/mL
concentration at 10 h [1]: 16.7 ng/mL
concentration at 10 h [2]: 16.5 ± 2.41 ng/mL
concentration at 12 h [1]: 8.86 ng/mL
concentration at 12 h [2]: 8.24 ± 1.69 ng/mL
concentration at 14 h (both sexes, Sprague-Dawley, rat, plasma, oral, 20 mg/kg, 20 mg/kg oral, 14 h, mean of 6 rats, read-out: Concentrations in Plasma of Rats after Oral Administration, Mean ± SD): 4.27 ± 1.58 ng/mL
concentration at 24 h (both sexes, Sprague-Dawley, rat, plasma, oral, 20 mg/kg, 20 mg/kg oral, 24 h, mean of 6 rats, read-out: Concentrations in Plasma of Rats after Oral Administration, Mean ± SD): 0.75 ± 0.51 ng/mL
bioavailability (both sexes, Sprague-Dawley, rat, plasma, oral, 20 mg/kg, rats, oral 20 mg/kg vs iv 2 mg/kg, n = 6, read-out: F % (absolute bioavailability), Mean ± SD): 12.2 ± 1.72%
AUC(0-t) (both sexes, Sprague-Dawley, rat, plasma, po, 20 mg/kg, gavage administration of 20 mg/kg, rats, read-out: AUC0-t in the rats' plasma): 583 ± 82.7 ng·h/mL
AUC0-t increased comparing with that of its non-deuterium counterpart (rats, gavage 20 mg/kg, relative to Vortioxetine): 19%
F % (rats, oral 20 mg/kg vs iv 2 mg/kg, individual rats 1-6): 11.5% and 10.1% and 13.8% and 14.6% and 11.9%
AUC0-t (area under the plasma concentration-time curve from zero to the last sampling time) [3]: 552.3 ng·h/mL and 487.5 ng·h/mL and 659.3 ng·h/mL and 703.9 ng·h/mL and 569.8 ng·h/mL
AUC0-∞ [3]: 552.5 ng·h/mL and 488.9 ng·h/mL and 666.0 ng·h/mL and 705.3 ng·h/mL and 571.4 ng·h/mL
Cmax [3]: 91.6 ng/mL and 77.8 ng/mL and 120.8 ng/mL and 144 ng/mL and 115.8 ng/mL
MRT0-∞ [3]: 4.92 h and 5.44 h and 5.08 h and 4.24 h and 4.28 h
t1/2 [3]: 4.0 h and 1.7 h and 2.8 h and 3.5 h and 2.6 h and 2.9 h
